In ChEMBL document CHEMBL5625216, “Design, synthesis, and biological evaluation of 3, 5-disubsituted-1H-pyrazolo[3,4-b]pyridines as multiacting inhibitors against microtubule and kinases” (Eur J Med Chem, 2023):

How the values were obtained:
in vivo [1] = conditions: ICR, mouse, iv, 5 mg/kg
in vivo [2] = conditions: ICR, mouse, po, 15 mg/kg
in vivo [3] = conditions: ICR, mouse, iv, 5 mg/kg; remark: listed apart in the source
in vivo [4] = conditions: ICR, mouse, po, 15 mg/kg; remark: listed apart in the source
in vivo [5] = conditions: ICR, mouse, iv, 5 mg/kg; remark: listed apart in the source
in vivo [6] = conditions: ICR, mouse, po, 15 mg/kg; remark: listed apart in the source
in vivo [7] = conditions: ICR, mouse, iv, 5 mg/kg; remark: listed apart in the source
in vivo [8] = conditions: ICR, mouse, po, 15 mg/kg; remark: listed apart in the source
in vivo [9] = conditions: ICR, mouse, iv, 5 mg/kg; remark: listed apart in the source
in vivo [10] = conditions: ICR, mouse, iv, 5 mg/kg; remark: listed apart in the source
in vivo [11] = conditions: ICR, mouse, po, 15 mg/kg; remark: listed apart in the source

- AUC(0-t) at 24 h (in vivo [1]): 1150 ng·h/mL
- AUC(0-t) at 24 h (in vivo [2]): 110 ng·h/mL
- half-life at 24 h (in vivo [3]): 78 min
- half-life at 24 h (in vivo [4]): 72 min
- Tmax at 24 h (in vivo [5]): 6 min
- Tmax at 24 h (in vivo [6]): 18 min
- Cmax at 24 h (in vivo [7]): 3850 ng/mL
- Cmax at 24 h (in vivo [8]): 115 ng/mL
- Vd at 24 h (in vivo [9]): 1.3 L/kg
- clearance at 24 h (in vivo [10]): 73.3 mL/min/kg
- bioavailability at 24 h (in vivo [11]): 3.2%
Structure (SMILES): COc1cc(-c2n[nH]c3ncc(-c4ccc(C)c(NCCO)c4)cc23)cc(OC)c1OC
